The values below come from US7683090B2, “Treating agent for irritable bowel syndrome” (Astellas Pharma Inc., priority 2004, dated 2010).

Where a name gives a salt, the structure may show the parent alone. Read-outs that look alike come from different tables or passages of the source.

Assay [1] concerns male and female patients suffering from diarrhea-predominant irritable bowel syndrome (IBS). Description: Clinical study with patients suffering from diarrhea-predominant irritable bowel syndrome (Test Example 1). Format: in vivo, human. The following applies: for final monthly responder rate in the global assessment of relief of overall IBS symptoms: placebo group 26.9%. As for the experimental part: Clinical study was carried out under the following condition using male and female patients suffering from diarrhea-predominant irritable bowel syndrome (IBS) as subjects.
Subjects: Patients suffering from diarrhea-predominant IBS in accordance with the Rome II Diagnosis Criteria (D. A. Drossman, et al., pages 351 to 432, ROME II: The functional Gastrointestinal Disorders, Second Edition, Degnon Associates, McLean, 2000).
Test drugs and Administration Methods: Placebo and ramosetron hydrochloride were orally administered for 12 weeks at 0.005 mg or 0.01 mg once daily.
Test Periods: Observation period for one week and treating period for 12 weeks
After transition to the treating period, the starting date for administration of the test drug was defined as the first day. Every week, global assessment of relief of overall IBS symptoms was evaluated taking all symptoms by IBS of the subjects into consideration, comparing with their state in the observation period, and this evaluation was recorded in a patient diary. Incidentally, scores for the global assessment of relief of overall IBS symptoms were as follows.
The subjects where the score was 0 or 1 for two weeks or more during the four weeks were made monthly responders and the monthly responder rate per month was calculated separately for each group of 0.005 mg and 0.01 mg of placebo and ramosetron hydrochloride.
After transition to the treating period, the starting date for administration of the test drug was defined as the first day. Every week, global assessment of relief of abdominal discomfort/pain by the test drug was evaluated with the state in the observation period and was recorded in a patient diary. Incidentally, scores for the global assessment of relief of abdominal discomfort/pain were as follows.
After transition to the treating period, the starting date for administration of the test drug was defined as the first day. Every week, global assessment of improvement of abnormal bowel habits was evaluated comparing with the state in the observation period, and was recorded in a patient diary. Incidentally, scores for the global assessment of improvement of abnormal bowel habits were as follows.
With regard to (1) to (3) for the subsidiary evaluation items, they were also subjected to calculations of monthly responder rate the same as those for the main evaluation items.

Assay [2] relates to patients suffering from irritable bowel syndrome. Description: Former clinical studies, ramosetron hydrochloride administered twice daily to patients suffering from irritable bowel syndrome. Format: in vivo, human. From the text: The present inventors have carried out intensive investigations for the purpose of creation of novel treating agents for irritable bowel syndrome including non-constipated irritable bowel syndrome such as diarrhea-predominant irritable bowel syndrome and alternating constipation/diarrhea irritable bowel syndrome for which no sufficiently effective treating agent has been available.

Assay [3] concerns patients suffering from non-constipated irritable bowel syndrome. The following applies: 1 to 8 mg twice daily, cited from earlier work.
Where [4] appears, read: 0.005 mg and 0.01 mg once daily, 12 weeks.

Consider `Cn1cc(C(=O)[C@@H]2CCc3[nH]cnc3C2)c2ccccc21` [ramosetron hydrochloride, (−)-(R)-5-[(1-methyl-1H-indol-3-yl)carbonyl]-4,5,6,7-tetrahydro-1H-benzimidazole], for which the “difference in the responder rates between placebo group and ramosetron group: male versus female patients” value in assay [1] (0.005 mg and 0.01 mg once daily) is “no difference was noted between male and female patients”. Moreover, in assay [1] (setting [4]), the “final monthly responder rate in the global assessment of relief of abdominal discomfort/pain, better than the placebo group” value is listed as “more than 10%”. The “final monthly responder rate in the global assessment of relief of abnormal bowel habits, better than the placebo group” value in assay [1] (setting [4]) is “more than 10%”. Moreover, the “therapeutic effect in patients suffering from diarrhea-predominant irritable bowel syndrome (conclusion)” value in assay [1] (0.005 mg and 0.01 mg, administration once daily) was “effective for both males and females”. In addition, the “final monthly responder rate in the global assessment of relief of overall IBS symptoms” value came to 42.6% in assay [1] (0.005 mg orally once daily, 12 weeks, p 0.0273 to placebo) and 43.0% in assay [1] (0.01 mg orally once daily, 12 weeks, p 0.0264 to placebo). Further, the “monthly responder rate (overall IBS symptoms) in excess of the responder rate in the placebo group” value in assay [1] (groups of 0.005 mg and 0.01 mg once daily, 12 weeks) is given as “more than 15%”. The “therapeutic effect as compared with placebo” value in assay [2] is “significant therapeutic effect as compared with placebo was unable to be confirmed”.
`Cc1[nH]cnc1CN1CCc2c(c3ccccc3n2C)C1=O` [alosetron]: the “relief of pain and discomfort, stool consistency, bowel movement frequency and proportion of days with urgency, compared with placebo” value in assay [3] (female patients) is on record as “significant improvement was noted in female patients”; in assay [3] (male patients), “no significant improvement was noted as compared with placebo except stool consistency”.
